Patent US20170266186A1, “USE OF INHIBITORS OF BRUTON'S TYROSINE KINASE (BTK)” (Pharmacyclics LLC, priority 2011, published 2017)
Where two headings read alike, the source gives them in different places. Marks after values point to notes of the source that are not given here.

Key:
[1] = test system: subjects with B-cell malignancies
From the text: The dose-escalation portion of this open-label trial enrolled subjects with B-cell malignancies (histologies listed in Table 2, below) and is now completed.

[2] = design: species or system human; details: in vivo
LY10 = test: growth inhibition by PCI-32765, LY10; type: cell-based; details: Homo sapiens; LY10, DLBCL, ABC
DHL-6 = test: growth inhibition by PCI-32765, DHL-6; type: cell-based; details: Homo sapiens; DHL-6, DLBCL, GCB
DHL-4 = test: growth inhibition by PCI-32765, DHL-4; type: cell-based; details: Homo sapiens; DHL-4, DLBCL, GCB
DHL-10 = test: growth inhibition by PCI-32765, DHL-10; type: cell-based; details: Homo sapiens; DHL-10, DLBCL, GCB
LY3 = test: growth inhibition by PCI-32765, LY3; type: cell-based; details: Homo sapiens; LY3, DLBCL, ABC (CARD11)
LY19 = test: growth inhibition by PCI-32765, LY19; type: cell-based; details: Homo sapiens; LY19, DLBCL, GCB (CARD11)
DB = test: growth inhibition by PCI-32765, DB; type: cell-based; details: Homo sapiens, DLBCL
DOHH2 = test: growth inhibition by PCI-32765, DOHH2; type: cell-based; details: Homo sapiens, DOHH-2; DOHH2, FL-transformed
WSU-DLCL2 = test: growth inhibition by PCI-32765, WSU-DLCL2; type: cell-based; details: Homo sapiens, WSUDLCL2; WSU-DLCL2, FL-transformed
Ramos = test: growth inhibition by PCI-32765, Ramos; type: cell-based; details: Homo sapiens, Burkitt's
Mino = test: growth inhibition by PCI-32765, Mino; type: cell-based; details: Homo sapiens, Mantle cell
DoHH2 cells = test: Alamar blue assay in DoHH2 cells; type: cell-based
Mino cells [3] = test: co-culture assay: migration of Mino cells beneath M2-10B4 stromal cells (pseudoemperipoliesis); type: cell-based, human; details: significant at 100 nM (p<0.01) and 1000 nM (p<0.001)
primary MCL cells [4] = test: co-culture assay: pseudoemperipoliesis of primary MCL cells with M2 stromal cells; type: cell-based, human; details: 100 nM
Mino cells [5] = test: actin polymerization in Mino cells (phalloidin); type: cell-based, human; details: 10 and 100 nM (p<0.001)
Mino and Jekol cells = test: chemokine and cytokine secretion of MCL cell lines after BCR activation or in stromal co-culture; type: cell-based, human; details: following BCR activation or in co-culture
[6] = test system: pBtk (Y223, Y551), pPLCy2; details: primary MCL and normal B cells
primary MCL cells [7] = test: adhesion of primary MCL cells; details: Homo sapiens, read-out: inhibition of CXCL12 or CXCL13 activated adhesion to VCAM1 and BCR stimulated adhesion to fibronectin
[8] = test system: Mino, Jekol and JVM-1 cells; test: migration assay, CXCL12-induced; details: Mino and Jekol more sensitive than JVM-1
Mino cells [9] = test: migration assay, CXCL13 stimulated; details: dose-dependently from 1 nM to 1 μM
Mino cells [10] = test: adhesion assay, chemokine-mediated, Mino; details: Homo sapiens, read-out: inhibition of adhesion to VCAM1 or fibronectin following CXCL12 or CXCL13 activations
Jekol cells = test: adhesion assay, chemokine-mediated, Jekol; details: Homo sapiens, read-out: inhibition of adhesion to VCAM1 or fibronectin following CXCL12 or CXCL13 activations
primary MCL = test: actin polymerization of primary MCL in co-culture; details: 100 nM (p<0.001)
[11] = test system: relapsed/refractory subjects with MCL; test: phase II study of PCI-32765 in relapsed/refractory MCL; details: for Discontinuation: Adverse event / Discontinuation: Disease Progression / Death on study: 560 mg/day
MCL patients = test: ALC and tumor volume (SPD) in MCL patients treated with ibrutinib
[12] = test system: plasma chemokines and cytokines; test: plasma chemokine and cytokine concentrations of ibrutinib treated MCL patients
pBtk, pPLCy2 and pAkt = details: alone or in co-culture with M2 cells

## C=CC(=O)N1CCC[C@@H](n2nc(-c3ccc(Oc4ccccc4)cc3)c3c(N)ncnc32)C1 [PCI-32765, (R)-1-(3-(4-amino-3-(4-phenoxyphenyl)-1H-pyrazolo[3,4-d]pyrimidin-1-yl)piperidin-1-yl)prop-2-en-1-one]
[1]; DLBCL (7 patients)
  CR: 0
  ORR (ITT): 29%
  ORR (evaluable pts): 29%
  PD: 4
  PR: 2
[1]; FL (16 patients)
  CR: 3
  ORR (ITT): 38%
  ORR (evaluable pts): 46%
  PD: 4
  PR: 3
[1]; MCL (9 patients)
  CR: 3
  PD: 1
  PR: 4
[1]; MZL/MALT (4 patients)
  CR: 0
  ORR (ITT): 25%
  ORR (evaluable pts): 33%
  PD: 1
  PR: 1
[1]; Overall (56 patients)
  ORR (ITT): 54%
  PD: 10
[1]; WM (4 patients)
  CR: 0
  PR: 3
[2]
  DLTs at the final dose level: No DLTs were observed
  dose limiting toxicities (DLTs) documented: Two
LY10
  GI50: 100 nM
DHL-6
  GI50: 180 nM
DHL-4
  GI50: 530 nM
DHL-10
  GI50: 3700 nM
LY3
  GI50: > 10000 nM
LY19
  GI50: > 10000 nM
DB
  GI50: > 10000 nM
DOHH2
  GI50: 120 nM
WSU-DLCL2
  GI50: 500 nM
Ramos
  GI50: 5500 nM
Mino
  GI50: 150 nM
DoHH2 cells
  sensitivity of DOHH2 cell line: moderately sensitive
Mino cells [3]
  migration of Mino cells beneath the stromal cells: dose-dependently inhibited
Primary MCL cells [4]
  pseudoemperipoliesis of primary MCL (hCD19+ cells): inhibited
Mino cells [5]
  CXCL12-increased cortical actin of Mino cells: dose-dependently and significantly inhibited
Mino and Jekol cells
  production of human IL-10, MDC, MIP-1α, MIP-1β, TNFα, CCL17 and CCL21: dose dependently and potently suppressed
[6]
  concentrations inhibiting pBtk (Y223, Y551) and reducing pPLCy2 (Y759, Y1217): ≥ 10 nM
Primary MCL cells [7]
  inhibition at 0.1 µM: 10 to 20%
[8]
  CXCL12-induced migration: dose-dependently inhibited
Mino cells [9]
  CXCL13 stimulated migration of Mino cells: significantly inhibited
Mino cells [10]
  inhibition at 0.1 µM: 50 to 70%
Jekol cells
  inhibition at 0.1 µM: 20 to 30%
Primary MCL
  actin polymerization of primary MCL in co-culture: suppressed
[11]; Bortezomib-Exposed (N = 27)
  Discontinuation: Adverse event: 1 (4) # (%)
  Discontinuation: Disease Progression: 6 (22) # (%)
[11]; Bortezomib-Exposed (N = 27), pneumonia
  Death on study: 1 (4) # (%)
[11]; Bortezomib-Naïve (N = 41)
  Death on study: 0 (0) # (%)
  Discontinuation: Adverse event: 2 (5) # (%)
  Discontinuation: Disease Progression: 7 (17) # (%)
[11]; Total (N = 68)
  Death on study: 1 (2) # (%)
  Discontinuation: Adverse event: 3 (4) # (%)
  Discontinuation: Disease Progression: 13 (19) # (%)
[11]; during the study
  myelosuppression: No significant myelosuppression
MCL patients; Phase 2, 560 mg per day, following 2-4 weeks of drug treatment
  increase in ALC: 100-150%
MCL patients; Phase I, MCL patients (n=9), evaluations following 2, 4 and 6 cycles
  reduction of tumor volumes (Sum of Perpendicular Diameters, SPD), on average: 80%
[12]; after one week of treatment
  reduction of plasma chemokines such as MDC, MIP-1β, and CXCL13: 40-60%
[12]; by the end of the first cycle of treatment
  reduction of IL-10 and TNF-α: 50%
[12]; following one week of treatment
  reduction of chemokines MDC, MIP-1β, CXCL13 and CXCL17, on average: more than 50%
pBtk, pPLCy2 and pAkt
  pBtk, pPLCy2 and pAkt in Mino cells: dose-dependently inhibited
